Values of other authors in US20260137642A1 (CANCER PREVENTION PHARMACEUTICALS, INC., priority 2021, published 2026).

Experiments:
[1] = in vivo; cited from earlier work
[2] = phase II study; cited from earlier work
[3] = cited from earlier work
[4] = cited from earlier work; remark: listed apart in the source

## Cc1ccc(-c2cc(C(F)(F)F)nn2-c2ccc(S(N)(=O)=O)cc2)cc1 [Celecoxib, 4-[5-(4-Methylphenyl)-3-(trifluoromethyl)pyrazol-1-yl]benzenesulfonamide]
[1]
  Increase in rates of heart and blood vessel disease: 30%
  Risk of gastrointestinal side effects: greater than 80%

## CCNCCCNCCCNCCCNCC [DENSPM]
[2]
  Tolerability: well-tolerated

## CC1=C(CC(=O)O)c2cc(F)ccc2/C1=C\c1ccc([S+](C)[O-])cc1 (centres unmarked) [Sulindac, (Z)-5-fluoro-2-methyl-1-((4-(methylsulfinyl)phenyl)methylene)-1H-indene-3-acetic acid]
[3]; abdominal pain and nausea most frequent
  Patients with mild gastrointestinal effects: ~20%
[3]; human, in vivo
  Patients with skin rash and pruritus: 5%
[4]; after oral administration
  Fraction of the drug absorbed: about 90%
[4]; fasting patients
  Time to peak plasma levels: about 2 hours

## CSc1ccc(/C=C2/C(C)=C(CC(=O)O)c3cc(F)ccc32)cc1 [sulfide metabolite]
[4]; in vivo
  Mean half-life: 16.4 h
